According to patent publication US9796686B2, “Antibacterial quinazoline-4(3H)-one derivatives” (priority 2014, dated 2017):
Values after ≈ are worked out from the molar mass of the structure shown. Where two headings read alike, the source gives them in different places.

Assays:
Format in all cases: cell-based
[1] = test system: K. pneumoniae A-651; test: Bacterial growth minimal inhibitory concentration, microdilution in cation-adjusted Mueller-Hinton Broth (CLSI M7-A7); conditions: Klebsiella pneumoniae, A651; multiply-resistant strain (in particular quinolone-resistant); read-out: MIC for K. Pneumoniae A-651
Procedure: (§1) Minimal Inhibitory Concentrations (MICs; mg/L) were determined in cation-adjusted Mueller-Hinton Broth by a microdilution method following the description given in “Methods for Dilution Antimicrobial Susceptibility Tests for Bacteria that Grow Aerobically”, Approved standard, 7th ed., Clinical and Laboratory Standards Institute (CLSI) Document M7-A7, Wayne, Pa., U.S.A. (2006).
(§2) All Example compounds were tested against several Gram-positive and Gram-negative bacteria. […] K. pneumoniae A-651 is a multiply-resistant strain (in particular quinolone-resistant), while E. coli ATCC25922 and P. aeruginosa ATCC27853 are quinolone-sensitive strains.

[2] = test system: P. aeruginosa ATCC27853; test: as above; conditions: Pseudomonas aeruginosa, ATCC27853; quinolone-sensitive strain; read-out: MIC for P. aeruginosa ATCC27853
Procedure: as §1, §2

[3] = test system: E. coli ATCC25922; test: as above; conditions: Escherichia coli, ATCC25922; quinolone-sensitive strain; read-out: MIC for E. coli ATCC25922
Procedure: as §1, §2

[4] = test system: wild-type E. coli A-1261; test: MIC against wild-type E. coli A-1261 with or without alkaline phosphatase or esterase; conditions: Escherichia coli
Procedure: Minimal Inhibitory Concentrations (MICs; mg/L) were determined in cation-adjusted Mueller-Hinton Broth by a microdilution method following the description given in “Methods for Dilution Antimicrobial Susceptibility Tests for Bacteria that Grow Aerobically”, Approved standard, 7th ed., Clinical and Laboratory Standards Institute (CLSI) Document M7-A7, Wayne, Pa., U.S.A. (2006). The compound of Example 31 was tested against wild-type E. coli A-1261 in the absence of alkaline phosphatase, in the presence of an alkaline phosphatase and in the presence of an esterase. The corresponding antibacterial test results are given in Table 2 hereafter (MICs in mg/L).

Structure (SMILES)	MIC [1]	MIC [2]	MIC [3]	MIC ([4]; alkaline phosphatase 2 i.U./mL, read-out: MIC for E. coli A-1261 In the presence of an alkaline phosphatase (2 i.U./mL))	MIC ([4]; esterase 10 i.U./mL, read-out: MIC for E. coli A-1261 In the presence of an esterase (10 i.U./mL))	MIC ([4]; no alkaline phosphatase or esterase, read-out: MIC for E. coli A-1261 In the absence of alkaline phosphatase or esterase)
CC(C)(O)C#CC#Cc1cc2ncn(CC[C@](C)(C(=O)NO)S(C)(=O)=O)c(=O)c2cc1F [Example 29, (R)-4-(6-fluoro-7-(5-hydroxy-5-methylhexa-1,3-diyn-1-yl)-4-oxoquinazolin-3(4H)-yl)-N-hydroxy-2-methyl-2-(methylsulfonyl)butanamide]	1 µg/mL (≈ 2.16 µM)	2 µg/mL (≈ 4.32 µM)	1 µg/mL (≈ 2.16 µM)			
C[C@@](CCn1cnc2cc(C#CC#CC3(COP(=O)(O)O)CC3)ccc2c1=O)(C(=O)NO)S(C)(=O)=O [Example 31, (R)-(1-((3-(4-(hydroxyamino)-3-methyl-3-(methylsulfonyl)-4-oxobutyl)-4-oxo-3,4-dihydroquinazolin-7-yl)buta-1,3-diyn-1-yl)cyclopropyl)methyl dihydrogen phosphate]				0.5 µg/mL	> 16 µg/mL	> 16 µg/mL
CN(C)CC#CC#Cc1cc2ncn(CC[C@](C)(C(=O)NO)S(C)(=O)=O)c(=O)c2cc1F.O=CO [Example 32, (R)-4-(7-(5-(dimethylamino)penta-1,3-diyn-1-yl)-6-fluoro-4-oxoquinazolin-3(4H)-yl)-N-hydroxy-2-methyl-2-(methylsulfonyl)butanamide formate]	0.5 µg/mL	2 µg/mL	0.25 µg/mL			
C[C@@](CCn1cnc2cc(C#CC#CC3(CO)CCC3)c(F)cc2c1=O)(C(=O)NO)S(C)(=O)=O [Example 34, (R)-4-(6-fluoro-7-((1-(hydroxymethyl)cyclobutyl)buta-1,3-diyn-1-yl)-4-oxoquinazolin-3(4H)-yl)-N-hydroxy-2-methyl-2-(methylsulfonyl)butanamide]	1 µg/mL (≈ 2.04 µM)	2 µg/mL (≈ 4.09 µM)	0.25 µg/mL (≈ 0.511 µM)			
C[C@@](CCn1cnc2cc(C#CC#CCC3(O)COC3)c(F)cc2c1=O)(C(=O)NO)S(C)(=O)=O [Example 35, (R)-4-(6-fluoro-7-(5-(3-hydroxyoxetan-3-yl)penta-1,3-diyn-1-yl)-4-oxoquinazolin-3(4H)-yl)-N-hydroxy-2-methyl-2-(methylsulfonyl)butanamide]	4 µg/mL (≈ 8.14 µM)	4 µg/mL (≈ 8.14 µM)	4 µg/mL (≈ 8.14 µM)			
